{"source": "patent US12613239B2", "about": "“Live imaging system to visualize the retro-transcribed viral DNA genome” (priority 2019, dated 2026)", "key": {"[1]": {"system": "HIV-1 ANCH3 (HIV-1ΔEnvINHAΔNef ANCH3/VSV-G)", "assay_type": "cell-based"}, "HIV-1 viral RNA": {"system": "HIV-1 viral RNA", "assay_type": "cell-based", "conditions": "24 h"}, "[2]": {"system": "HIV-1 CA and IN association", "assay_type": "cell-based", "conditions": "24 h"}, "viral CA": {"target": "viral CA (Human immunodeficiency virus type 1 group M subtype B, UniProt P04591)", "conditions": "cited from earlier work"}, "[3]": {"system": "lentiviral particles pseudotyped with Spike from SARS-CoV2 (S-LV-ANCH3)", "assay_type": "cell-based"}}, "note": "Read-outs that look alike come from different tables or passages of the source.", "data": [{"compound": "Cc1ccnc2c1NC(=O)c1cccnc1N2C1CC1", "note": "[NEV, nevirapine]", "values": [{"measurement": "Intranuclear spots counted in 20 cells", "setting": "[1]", "result": 0, "unit": "detections"}]}, {"compound": "Cc1[nH]c2ccccc2c1CC(=O)N[C@@H](Cc1ccccc1)C(=O)N(C)c1ccccc1", "note": "[PF74]", "values": [{"measurement": "Detection of viral DNA inside the nucleus", "setting": "[1]", "result": "detect the viral DNA inside the nucleus only in the absence of PF74"}, {"measurement": "Viral nuclear entry", "setting": "[1]", "result": "blocked viral nuclear entry"}, {"measurement": "Viral RNA of the incoming cores", "setting": "HIV-1 viral RNA; high dose of PF74 (10 μM)", "result": "completely degraded"}, {"measurement": "Viral RNA of the incoming cores", "setting": "HIV-1 viral RNA; low dose of PF74 (1.25 μM)", "result": "not completely degraded"}, {"measurement": "Association between CA and IN", "setting": "[2]; high dose of PF74 (10 μM)", "result": "lost"}, {"measurement": "Association between CA and IN", "setting": "[2]; low dose of PF74 (1.25 μM)", "result": "preserved to levels comparable to samples without drug at 6 h post infection"}, {"measurement": "Mechanism at high concentration", "setting": "viral CA", "result": "accelerates uncoating and blocks reverse transcription"}, {"measurement": "Mechanism at low concentration", "setting": "viral CA", "result": "directly competes with the binding of host viral partners"}]}, {"compound": "CCN(CCO)CCCC(C)Nc1ccnc2cc(Cl)ccc12", "note": "(stereo not shown) [hydroxychloroquine]", "values": [{"measurement": "Viral entry of S-LV-ANCH3", "setting": "[3]", "result": "inhibit viral entry"}]}]}
